# Measured values: US20080076729A1, “Interferon-beta gene therapy using an improved, regulated expression system” (Schering Aktiengesellachaft, priority 2005, published 2008)
# System: IP-10
# Test: IP-10 chemokine level in plasma/serum of treated mice by ELISA
# Assay type: in vivo
# Procedure: FIG. 7 illustrates induction levels of IP-10 (A) and JE (B) following i.v. or i.m. injection of murine IFN-β protein. C57BL/6 mice were administered 15, 150, or 500 ng of purified recombinant mIFN-β protein (specific activity=2.0×10^8 units/mg) by either i.v. (via tail vein) or i.m. injection (n=3 mice per group). The mice were bled at 2, 4, 6, 12, 24, and 48 hours post-injection, and the plasma levels of IP-10 and JE were measured by ELISA (R&D Systems).
# FIG. 8 illustrates the induction of IP-10 following intramuscular injection of AAV-1-mIFN-β DNA or mIFN-β plasmid DNA with electroporation (EP) in mice. […] Mice were bled at the indicated time points and IP-10 levels in plasma were determined by ELISA. […]
# • A. Development of mIFN-β Biomarkers: For higher sensitivity in detection of murine IFN-β (mIFN-β) activity in vivo, biomarkers for mIFN-β activity were identified in mice after injection of mIFN-β protein or mIFN-β encoded gene therapy vectors. […] In the present study, the expression of the MxA mouse homologue, Mx1, (see e.g., Hug, H et al. Mol Cell Biol 8: 3065-79; Pavlovic, J (1993) Ciba Found Symp 176: 233-43) isolated from murine peripheral blood monocytes (PBMC's) was used to detect the presence of biologically active mIFN-β. • A quantitative PCR/RT-PCR assay was developed to quantitate the levels of Mx1 mRNA in murine PBMC's. […]
substance,measurement,setting,value
mIFN-β: purified recombinant murine interferon-beta protein,time by which plasma IP-10 dropped to background,"bolus protein, each of three doses",≤ 24 h
same,IP-10 levels increase,"high dose (500 ng) delivered i.v., 2 hours",3000 fold
